Laboratory results published in US11512090B2, “Muscarinic acetylcholine M1 receptor antagonists” (PIPELINE THERAPEUTICS, INC., priority 2018, dated 2022).
Read-outs that look alike come from different tables or passages of the source.

Experiments:
Format in all cases: cell-based
[1] = biological target: T1, M2 (Homo sapiens, UniProt P08172); assay: In vitro functional assay of muscarinic acetylcholine receptor activity, M2
T1 sequence (P08172 1-466): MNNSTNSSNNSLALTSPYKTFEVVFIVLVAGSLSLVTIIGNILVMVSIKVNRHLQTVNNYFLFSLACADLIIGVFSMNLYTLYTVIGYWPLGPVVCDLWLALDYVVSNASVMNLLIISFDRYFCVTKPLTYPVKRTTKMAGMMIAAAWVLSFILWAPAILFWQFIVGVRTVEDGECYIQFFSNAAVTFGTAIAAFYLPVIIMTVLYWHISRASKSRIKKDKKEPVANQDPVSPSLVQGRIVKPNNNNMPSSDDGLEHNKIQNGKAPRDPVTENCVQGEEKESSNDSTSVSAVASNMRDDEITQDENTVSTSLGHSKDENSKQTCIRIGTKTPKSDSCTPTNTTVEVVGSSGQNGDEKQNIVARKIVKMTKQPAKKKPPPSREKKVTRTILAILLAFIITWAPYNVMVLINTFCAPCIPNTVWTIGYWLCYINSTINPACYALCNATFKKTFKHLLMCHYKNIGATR

[2] = biological target: T2, human M1 receptor (Homo sapiens, UniProt P11229); assay: In vitro functional assay of muscarinic acetylcholine receptor activity (aequorin calcium flux, antagonist mode vs EC80 acetylcholine), M1
T2 sequence (P11229 1-460): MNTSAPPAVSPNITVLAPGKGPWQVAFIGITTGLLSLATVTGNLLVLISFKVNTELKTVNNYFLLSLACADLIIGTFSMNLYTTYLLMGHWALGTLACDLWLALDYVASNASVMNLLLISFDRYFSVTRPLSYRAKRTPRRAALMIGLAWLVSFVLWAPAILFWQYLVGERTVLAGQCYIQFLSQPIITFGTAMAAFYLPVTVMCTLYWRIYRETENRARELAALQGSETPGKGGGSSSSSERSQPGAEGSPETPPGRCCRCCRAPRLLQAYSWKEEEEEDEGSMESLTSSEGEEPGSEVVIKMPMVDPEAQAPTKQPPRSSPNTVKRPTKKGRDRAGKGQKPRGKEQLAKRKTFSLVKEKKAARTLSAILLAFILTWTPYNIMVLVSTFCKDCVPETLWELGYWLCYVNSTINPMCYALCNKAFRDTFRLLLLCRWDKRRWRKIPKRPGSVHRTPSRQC
How it was run: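 CHO-K1 cells stably co-expressing human M1 and aequorin were loaded with 5 uM coelenterazine h for 4 h at room temperature in the dark. IC50 came from the drop in luminescence.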

[3] = biological target: M3 (Homo sapiens, UniProt P20309); assay: In vitro functional assay of muscarinic acetylcholine receptor activity, M3; conditions: antagonist IC50 at M3; read-out: M3 IC50
[4] = antagonist IC50 at M2, read-out: M2 IC50
[5] = CHO-K1 cells stably expressing human M1 receptor with Aequorin, decrease in EC80 acetylcholine response, read-out: M1 IC50

M3, sequence (P20309 whole entry): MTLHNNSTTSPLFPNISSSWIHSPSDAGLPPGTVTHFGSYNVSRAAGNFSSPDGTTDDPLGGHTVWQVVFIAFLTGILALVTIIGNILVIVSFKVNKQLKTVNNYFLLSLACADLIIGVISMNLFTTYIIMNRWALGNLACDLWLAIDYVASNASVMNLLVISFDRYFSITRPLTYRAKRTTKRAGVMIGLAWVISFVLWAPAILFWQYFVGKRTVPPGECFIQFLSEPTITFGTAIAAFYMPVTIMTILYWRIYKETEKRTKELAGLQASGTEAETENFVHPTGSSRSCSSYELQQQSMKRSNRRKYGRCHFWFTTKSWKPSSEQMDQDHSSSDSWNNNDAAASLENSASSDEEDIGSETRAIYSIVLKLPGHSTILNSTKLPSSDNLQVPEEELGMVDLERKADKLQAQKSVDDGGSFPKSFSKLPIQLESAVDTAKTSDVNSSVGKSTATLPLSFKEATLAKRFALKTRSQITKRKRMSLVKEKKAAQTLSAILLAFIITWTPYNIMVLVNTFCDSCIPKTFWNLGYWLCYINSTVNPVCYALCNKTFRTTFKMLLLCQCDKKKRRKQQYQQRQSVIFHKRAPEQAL

Row | Compound | IC50 [1, 4] [nM] | IC50 [2] [nM] | IC50 [3] [nM] | IC50 [2, 5] [nM] | IC50 [1] [nM]
1 | O=C(CCOCc1cccc2cnccc12)N1C[C@H]2CC[C@@H](C1)N2c1ccc(F)cn1 [Example 49, 1-((1R,5S)-8-(5-fluoropyridin-2-yl)-3,8-diazabicyclo[3.2.1]octan-3-yl)-3-(isoquinolin-5-ylmethoxy)propan-1-one] | 1000 to 10000 | 100 to 1000 | > 10000 | – | –
2 | Cc1cc(F)cnc1N1CC(C)N(C(=O)CCS(=O)(=O)c2cccc3ncsc23)C[C@H]1C (stereo partly drawn) [Example 127, 3-(1,3-benzothiazole-7-sulfonyl)-1-[(5R)-4-(5-fluoro-3-methylpyridin-2-yl)-2,5-dimethylpiperazin-1-yl]propan-1-one] | 100 to 1000 | – | 1000 to 10000 | < 100 | –
3 | Cc1cc(F)cnc1N1CCN(C(=O)CCCc2cccc3nccn23)[C@@H](C)C1 [Example 84, (S)-1-(4-(5-fluoro-3-methylpyridin-2-yl)-2-methylpiperazin-1-yl)-4-(imidazo[1,2-a]pyridin-5-yl)butan-1-one] | > 10000 | – | > 10000 | 1000 to 10000 | –
4 | N#Cc1ccc(-c2ccc(N3C4CCC3CN(C(=O)CCNCc3cccc5ncnn35)C4)cc2)nc1 [Example 175, 6-[4-(3-{3-[({[1,2,4]triazolo[1,5-a]pyridin-5-yl}methyl)amino]propanoyl}-3,8-diazabicyclo[3.2.1]octan-8-yl)phenyl]pyridine-3-carbonitrile] | 1000 to 10000 | 100 to 1000 | > 10000 | – | –
5 | O=C(CCS(=O)(=O)c1cccc2ncsc12)N1CCN(c2c(Cl)cncc2Cl)CC1 [Example 105, 3-(benzo[d]thiazol-7-ylsulfonyl)-1-(4-(3,5-dichloropyridin-4-yl)piperazin-1-yl)propan-1-one] | 1000 to 10000 | – | 1000 to 10000 | 1000 to 10000 | –
6 | Cc1cc(F)cnc1N1CCN(C(=O)CCCc2cccc3ncsc23)[C@@H](C)C1 [Example 81, (S)-4-(benzo[d]thiazol-7-yl)-1-(4-(5-fluoro-3-methylpyridin-2-yl)-2-methylpiperazin-1-yl)butan-1-one] | 100 to 1000 | – | 1000 to 10000 | < 100 | –
7 | Cc1cc(C#N)cnc1N1CCN(C(=O)CCS(=O)(=O)c2cccc3ncsc23)[C@@H](C)C1 [Example 124, 6-[(3S)-4-[3-(1,3-benzothiazole-7-sulfonyl)propanoyl]-3-methylpiperazin-1-yl]-5-methylpyridine-3-carbonitrile] | 100 to 1000 | – | 100 to 1000 | < 100 | –
8 | N#Cc1ccc(C2CC3CCC(C2)N3C(=O)CCS(=O)(=O)c2cccc3ncsc23)nc1 (stereo not drawn) [Example 142, 6-{8-[3-(1,3-benzothiazole-7-sulfonyl)propanoyl]-8-azabicyclo[3.2.1]octan-3-yl}pyridine-3-carbonitrile] | 1000 to 10000 | – | > 10000 | 1000 to 10000 | –
9 | O=C(CCS(=O)(=O)c1cccc2ncsc12)N1CC=C(c2ccc(C(F)(F)F)cn2)CC1 [Example 140, 3-(1,3-benzothiazole-7-sulfonyl)-1-[5-(trifluoromethyl)-1′,2′,3′,6′-tetrahydro-[2,4′-bipyridin]-1′-yl]propan-1-one] | 1000 to 10000 | – | 1000 to 10000 | < 100 | –
10 | Cc1cc(F)cnc1N1CCN(C(=O)CCCS(=O)(=O)c2cccc3ncsc23)[C@@H](C)C1 [Example 97, (S)-4-(benzo[d]thiazol-7-ylsulfonyl)-1-(4-(5-fluoro-3-methylpyridin-2-yl)-2-methylpiperazin-1-yl)butan-1-one] | 1000 to 10000 | – | 1000 to 10000 | 1000 to 10000 | –
11 | Cc1cc(F)cnc1N1CCN(C(=O)CCCc2cccc3ncncc23)[C@@H](C)C1 [Example 82, (S)-1-(4-(5-fluoro-3-methylpyridin-2-yl)-2-methylpiperazin-1-yl)-4-(quinazolin-5-yl)butan-1-one] | 1000 to 10000 | – | 1000 to 10000 | < 100 | –
12 | O=C(CCS(=O)(=O)c1cccc2nccn12)N1CC2CCC(C1)N2c1ccc(C(F)(F)F)cn1 [Example 136, 3-{imidazo[1,2-a]pyridine-5-sulfonyl}-1-{8-[5-(trifluoromethyl)pyridin-2-yl]-3,8-diazabicyclo[3.2.1]octan-3-yl}propan-1-one] | 1000 to 10000 | < 100 | 1000 to 10000 | – | –
13 | Cc1ccc(COCCC(=O)N2CC3CCC(C2)N3c2ccc(C#N)cn2)c2cccnc12 [Example 176, 6-(3-{3-[(8-methylquinolin-5-yl)methoxy]propanoyl}-3,8-diazabicyclo[3.2.1]octan-8-yl)pyridine-3-carbonitrile] | 1000 to 10000 | 100 to 1000 | > 10000 | – | –
14 | N#Cc1ccc(N2C3COCC2CN(C(=O)CCS(=O)(=O)c2cccc4ncsc24)C3)nc1 [Example 133, 6-{7-[3-(1,3-benzothiazole-7-sulfonyl)propanoyl]-3-oxa-7,9-diazabicyclo[3.3.1]nonan-9-yl}pyridine-3-carbonitrile] | – | < 100 | > 10000 | – | 100 to 1000
